Reference: patent publication US10072005B2, “4-azaindole derivatives” (EISAI R&D MANAGEMENT CO., LTD., priority 2013, dated 2018)

How the values were obtained:
mAChR M4 = mAChR M4 (Homo sapiens (Human), UniProt P08173); assay: In vitro cellular calcium flux assay, PAM, NAM and agonist modes, mAChR M4; format: cell-based
Procedure: (§1) Baby hamster kidney cells stably expressing human or rat mAChR M1 to M5 were utilised for primary and selectivity profiling activities. mAChR M2 and M4 cell lines also stably expressed the chimeric Gαqi5 G-protein.
(§2) Human mAChR M1, M3, M5 and rat M1 cells were grown in low glucose Dulbecco's Modified Eagle's Medium (DMEM) medium plus heat inactivated 10% fetal bovine serum (HI FBS) and 500 μg/ml hygromycin B^1. Human mAChR M2 and M4 cells were maintained as above with^2 the addition of 500 μg/ml G418 to the media. Cells were maintained in culture at 37° C./5% CO2 and passaged twice weekly by treatment with 0.05% Trypsin/EDTA detachment solution, centrifugation (200 g, 5 min) and re-suspension in fresh media. Following cell expansion, cells were cryopreserved at −80° C. by treatment with 0.05% Trypsin/EDTA detachment solution, centrifugation (200 g, 5 min) and re-suspension of the pellet in freezing media (90% HI FBS/10% DMSO^3) at 15E6 cells/ml^4.
(§3) Prior to assaying, cells were prepared by thawing at 37° C. in a water bath, centrifugation (200 g, 5 min) and re-suspension of the pellet in fresh media. 15000 cells per well were seeded in black, clear bottomed 384-well Greiner Bio-One plates in plating medium (DMEM/10% HI FBS) and incubated overnight at 37 C/5% CO2.
(§4) On the day of the assay, media was removed from each well and replaced with 50 μl^5 assay buffer (HBSS with 20 mM HEPES and 2.5 mM Probenecid) containing the calcium indicator, Calcium 4 (Molecular Devices). Cells were then incubated at 37° C./5% CO2 for 30 min and at room temperature.
(§5) Compound preparation was carried out by generation of 11-point, 1 in 3 serial dilution concentration response curves in 100% DMSO. Compound was then diluted 1 in 65^6 with assay buffer (HBSS with 20 mM HEPES and 2.5 mM Probenecid) prior to the addition of 10 ul^7 to the cells using a Tetra fluorometric imaging plate reader (Molecular Devices)^8. Compound driven increases in intracellular calcium flux was measured as an increase in fluorescence (494Ex, 516Em)^9.
(§6) Positive allosteric modulator pEC50 values and antagonist pIC50 values for each compound were then determined. […] The points of modification and the alternate reagents, concentrations or equipment employed in these examples were: ^1200 μg/ml hygromycin B; ^2G418 not added; ^3CELLBANKER 1; ^410E6; ^5 40 μl; ^6 1 in 99; ^7 20 μl; ^8FDSS6000 (Hamamatsu Photonics); ^9(480Ex, 540Em); ^10Spotfire (TIBCO).
(§7) Certain compounds were tested in PAM, NAM and agonist modes against mAChR M2, M3, M4 and M5.

mAChR M2 = mAChR M2 (Homo sapiens (Human), UniProt P08172); assay: In vitro cellular calcium flux assay, PAM, NAM and agonist modes, mAChR M2; format: cell-based
Sequence of mAChR M2 (P08172 whole entry): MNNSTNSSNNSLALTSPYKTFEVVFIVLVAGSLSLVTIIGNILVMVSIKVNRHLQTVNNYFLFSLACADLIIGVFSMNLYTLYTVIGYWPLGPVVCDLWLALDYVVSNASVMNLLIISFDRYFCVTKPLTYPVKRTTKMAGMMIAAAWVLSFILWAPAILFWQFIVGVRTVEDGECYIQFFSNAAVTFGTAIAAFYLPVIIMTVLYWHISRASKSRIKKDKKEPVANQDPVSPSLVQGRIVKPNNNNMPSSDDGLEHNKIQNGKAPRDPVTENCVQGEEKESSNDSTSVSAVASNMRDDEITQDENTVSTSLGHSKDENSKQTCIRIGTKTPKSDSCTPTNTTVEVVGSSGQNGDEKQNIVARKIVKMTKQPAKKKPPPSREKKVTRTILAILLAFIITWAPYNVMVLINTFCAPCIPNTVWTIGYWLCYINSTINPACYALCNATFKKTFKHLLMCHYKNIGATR
Procedure: as §1, §2, §3, §4, §5, §6, §7

male Long-Evans rats = assay: Novel Object Recognition Test in Scopolamine-Induced Cognitive Deficit Condition; format: in vivo; details: rat
Procedure: For 2 days before starting the test, 6-week old male Long-Evans rats were acclimated to experimental operations such as administration and a test device (that is, a black or gray plastic cage with a width of 40 cm, a depth of 30 cm and a height of 45 cm). Each test compound was dissolved in a 0.5% methylcellulose in water to be orally administered at dosage ranges between 0.01 and 0.1 mg/kg. Thirty minutes after the test compound administration, scopolamine hydrobromide dissolved in a saline was intraperitoneally administered at a 0.7 mg/kg dose, so as to induce cognitive impairment. After another 30 minutes, each rat was acclimated in the test device for 3 minutes, and thereafter, two blocks in the same shape were put in the test device as acquisition trial, and exploring time for each block was measured for 5 minutes. Two hours after the acquisition trial, the rat was acclimated in the test device for 3 minutes, and thereafter, the same block as those used in the acquisition trial and a new block in a different shape were put in the cage for retention trial. The exploring time for each block was measured for 3 minutes, and a ratio of the exploring time for the newly used block to the sum of the exploring times for the respective blocks was calculated as a discrimination index (novel object exploration time/total object exploration time in retention trial×100). […]
Each discrimination index was shown as an average and a standard error. The statistical significance between the vehicle group and the scopolamine alone group was analyzed by the independent t-test. The statistical significance between the scopolamine alone group and each sample group was analyzed by one-way analysis of variance and then by Dunnett's multiple comparison test. […]

Male Lister Hooded rats = assay: Novel Object Recognition test; format: in vivo; details: rat, 24 h delay
Procedure: The Novel Object Recognition test (NOR) is based on the greater spontaneous exploration of a novel object, compared with a familiar object, observed in rodents (Behav. Brain Res., 1988, 31(1), 47-59). […] Therefore, it is considered to be analogous to recognition memory tests used in human clinical testing. Male Lister Hooded rats were assessed for object recognition in a test apparatus comprising of a perspex test arena housed within a sound attenuating chamber. Video images of behaviour were captured by digital camera and recorded to a computer. Rats were habituated to the test arena on four occasions prior to testing. Habituation sessions replicated the test day sequence exactly with the exception of object presentation. On test days, each rat was placed into the test arena and 3 minutes later the rat was presented with two identical objects (plastic shapes). The time spent actively exploring the objects during a 3-minute test period (T1) was recorded. Following T1 rats were returned to home cages. After 24 hours each rat was again placed in the test arena and 3 minutes later was presented with one of the now familiar objects and a novel object, and again the time spent actively exploring the objects during a 3-minute test period (T2) was recorded. The presentation order and position of objects (left/right) was randomised within groups to prevent bias from order or place preference. Objects were cleaned with 70% ethanol solution between trials to remove any olfactory/taste cues. Compounds were administered by oral gavage at an appropriate pre-treatment time prior to T1 and T2 (n=12) at dosage ranges between 0.03 and 3 mg/kg. In some experiments the 5-HT6 receptor antagonist N-(3,5-dichloro-2-methoxyphenyl)-4-methoxy-3-(piperazin-1-yl)benzenesulfonamide (CAS 402713-80-8) (10 mg/kg p.o.; 4 h pre-treatment time) was included as a positive control. Vehicle controls (1% methylcellulose in water) were included for comparison in each study. Results are expressed as the d2 index (difference in time spent exploring novel and familiar objects/total object exploration in T2).

Sequence of mAChR M4 (P08173 whole entry): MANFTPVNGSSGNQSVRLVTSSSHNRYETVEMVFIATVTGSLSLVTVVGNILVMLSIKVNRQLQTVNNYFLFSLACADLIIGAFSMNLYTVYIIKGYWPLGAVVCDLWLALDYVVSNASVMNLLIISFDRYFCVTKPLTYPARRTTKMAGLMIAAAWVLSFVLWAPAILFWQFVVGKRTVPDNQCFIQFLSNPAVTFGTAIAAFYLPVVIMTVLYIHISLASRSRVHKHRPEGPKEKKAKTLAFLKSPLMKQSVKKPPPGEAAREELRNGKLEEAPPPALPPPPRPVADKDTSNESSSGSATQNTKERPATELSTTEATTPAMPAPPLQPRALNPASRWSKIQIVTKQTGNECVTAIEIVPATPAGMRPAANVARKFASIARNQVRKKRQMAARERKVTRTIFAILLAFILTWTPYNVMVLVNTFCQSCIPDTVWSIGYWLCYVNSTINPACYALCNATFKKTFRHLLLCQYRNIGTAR

O=C(N[C@H]1CCCC[C@@H]1O)c1cn(Cc2ccc(F)cc2)c2cccnc12 [Example 5, 1-(4-Fluorobenzyl)-N-((1S,2S)-2-hydroxycyclohexyl)-1H-pyrrolo[3,2-b]pyridine-3-carboxamide]
EC50 (mAChR M4): > 10 µM
EC50 (mAChR M2): > 10 µM
discrimination index [mean ± SEM] (male Long-Evans rats; Scopolamine/0.01 mg/kg p.o.): [50.5 ± 4.3]
discrimination index [mean ± SEM] (male Long-Evans rats; Scopolamine/0.03 mg/kg p.o.): [61.7 ± 2.5]
discrimination index [mean ± SEM] (male Long-Evans rats; Scopolamine/0.1 mg/kg p.o.): [72.9 ± 2.6]###
d2 index [mean ± SEM] (Male Lister Hooded rats; 0.03 mg/kg p.o.): [0.04 ± 0.06]
d2 index [mean ± SEM] (Male Lister Hooded rats; 0.1 mg/kg p.o.): [0.20 ± 0.05]**
d2 index [mean ± SEM] (Male Lister Hooded rats; 0.3 mg/kg p.o.): [0.28 ± 0.05]***
